Reference: patent US20230416688A1, “CHEMICAL CULTURE SYSTEM AND USE THEREOF” (IREGENE THERAPEUTICS LTD, priority 2020, published 2023)

What was measured:
[1] = tested on: human neural cell line ReNcell VM; experiment: Cyquant cell viability assay, neural cell line, compound concentration screening; format: cell-based; settings: only this component's concentration changed
Procedure: 6-well culture plates were coated with 50 μg/mL polylysine (SIGMA, P6407) and incubated for more than 3 h at 37° C. in a thermostat after plate laying; then further coated with 5 μg/mL Laminin (I2020, SIGMAALDRICH) and incubated for more than 3 h at 37° C. in a thermostat after plate laying. Mouse primary cells and the human neural cell line ReNcell VM were cultured, where mouse primary cell isolation was performed according to the method described in Nature Protocols. Volume 7, pages 1741-1754 (2012). Cell culture conditions were 37° C., 5% carbon dioxide (Panasonic, MCO-18AC), and cell adherent culture. The culture medium of the present invention, Neuralbasal+I0% FBS and N2B27 culture medium were used for comparison, respectively. Cell passage was digested with 0.05% trypsin/EDTA at 37° C. for 5 min, and the cell digestion was terminated with DMEM+10% FBS. […]
(§1) The Cyquant assay is used for quantitative detection of cell viability to compare the effects of different medium components on the physiological state of cells during long-term cell culture. […] Samples were taken on day 1, day 5, day 15 and day 30, and cell viability assays were performed using CyQuant Kit (Invitrogen, X12223) and operated according to the instruction manual, and using SpectraMax i3 Multi-Mode Microplate Reader (VWR, model ID3-STD) for data reading. […]

[2] = tested on: induced cortical neurons; experiment: Cyquant cell viability assay during induction of cortical neurons; format: cell-based, human; settings: FIG. 6n; cortical neuron induction
Procedure: For cortical neuron differentiation, 6-well culture plates were coated with 50 μg/mL poly-Lysine (SIGMA, P6407) and incubated for more than 3 h in a 37° C. incubator after plate laying; then further coated with 3 μg/mL laminin (Laminin, 12020, SIGMAALDRICH) and incubated for more than 3 h at 37° C. after plate laying. The induced nerve stem cells obtained in Example 3 was re-inoculated into T25 culture plates at a rate of 1×105 per vial. Neural stem cells were cultured using NouvNeu culture medium at 37° C. and 5% CO2 (Panasonic, MCO-18AC), and the medium was replaced with fresh medium every three days until neurons formation on day 30. In the control experiment, N2B27 medium was used for neuron induction, and the specific operation steps were the same as above.
as §1, with “10,” for “5,”, “35,” for “30,”, “i3Multi-Mode” for “i3 Multi-Mode”, “Model” for “model”

Compound	use range of concentration in the medium (Cyquant) ([1]; FIG. 2d)	use range of concentration in the medium (Cyquant) ([1]; FIG. 2b)	use range of concentration in the medium (Cyquant) [2]
recombinant human transferrin: recombinant human transferrin, component of the NouvNeu medium	50 to 200 ng/mL	–	–
O=C[C@H](O)[C@@H](O)[C@@H](O)[C@H](O)CO [D(+)-galactose]	–	5000 to 25000 ng/mL	5 to 25 µg/mL
